Measured values taken from ChEMBL document CHEMBL3108712, “Viniphenol A, a complex resveratrol hexamer from Vitis vinifera stalks: structural elucidation and protective effects against amyloid-β-induced toxicity in PC12 cells” (J Nat Prod, 2014).

Tested on: PC-12
Experiment: Neuroprotective activity against amyloid beta (25 to 35)-induced toxicity in rat PC12 cells assessed as cell viability preincubated for 48 hrs with amyloid beta (25 to 35) followed by addition to cell culture measured after 24 hrs by MTT assay
Assay type: functional, cell-based

## Oc1ccc([C@@H]2c3c(O)cc(O)cc3[C@H]3c4c(cc(O)cc4[C@@H]2[C@@H](c2ccc(O)cc2)[C@@H]2c4cc(O)cc5c4[C@H](c4cc(O)cc(O)c4[C@@H](c4ccc(O)cc4)[C@@H]2c2cc(O)cc4c2[C@H](c2cc(O)cc(O)c2)[C@@H](c2ccc(O)cc2)O4)[C@@H](c2ccc(O)cc2)O5)O[C@@H]3c2ccc(O)cc2)cc1
  Activity: Dose-dependent effect
